{"source": "paper PMC3489043", "about": "(Nature neuroscience, 2011)", "key": {"mutant α7 AChRs [1]": {"system": "mutant α7 AChRs", "type": "binding, human"}, "human α7 AChR": {"target": "human α7 AChR (Homo sapiens, UniProt P36544)", "sequence (P36544 23-502)": "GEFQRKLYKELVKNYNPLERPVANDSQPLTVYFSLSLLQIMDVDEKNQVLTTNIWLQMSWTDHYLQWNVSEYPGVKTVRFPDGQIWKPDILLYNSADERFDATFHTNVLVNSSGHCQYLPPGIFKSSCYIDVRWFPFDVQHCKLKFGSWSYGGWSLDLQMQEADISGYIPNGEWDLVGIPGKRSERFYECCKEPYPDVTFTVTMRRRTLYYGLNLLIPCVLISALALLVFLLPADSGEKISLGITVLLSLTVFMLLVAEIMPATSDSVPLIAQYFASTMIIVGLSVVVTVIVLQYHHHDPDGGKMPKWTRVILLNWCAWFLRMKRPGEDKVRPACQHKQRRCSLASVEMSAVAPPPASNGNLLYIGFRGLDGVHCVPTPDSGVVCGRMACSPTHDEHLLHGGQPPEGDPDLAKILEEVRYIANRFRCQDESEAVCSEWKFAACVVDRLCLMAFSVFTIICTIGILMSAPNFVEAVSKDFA", "type": "binding"}, "muscle AChRs": {"system": "muscle AChRs", "settings": "cited from earlier work"}, "α7 AChRs": {"system": "α7 AChRs", "settings": "cited from earlier work"}, "mutant α7 AChRs [2]": {"target": "mutant α7 AChRs (Homo sapiens, UniProt P36544, W77F)", "sequence (P36544 23-502 W77F)": "as the sequence (P36544 23-502) above, with W55F counted along it", "type": "binding"}, "α7–AChBP chimera": {"system": "α7–AChBP chimera", "assay": "Radiolabeled ligand binding to the α7–AChBP chimera", "design": "species or system human / Lymnaea stagnalis"}}, "note": "Where two headings read alike, the source gives them in different places.", "data": [{"compound": "CC(=O)OCC[N+](C)(C)C", "note": "[ACh, acetylcholine]", "values": [{"measurement": "change of agonist affinity for the α7 AChR", "setting": "mutant α7 AChRs [1]; substitutions at Arg182, Glu185, Glu181 (loop C) and Gln37, steady-state binding", "result": "increased affinity"}, {"measurement": "cooperativity of ACh binding", "setting": "human α7 AChR; steady-state binding", "result": "highly cooperative"}]}, {"compound": "C[N+](C)(C)CCO", "note": "[choline]", "values": [{"measurement": "efficacy at muscle AChRs", "setting": "muscle AChRs", "result": "low efficacy"}, {"measurement": "efficacy at α7 AChRs", "setting": "α7 AChRs", "result": "high efficacy"}]}, {"compound": "Clc1ccc(C2CC3CCC2N3)cn1", "note": "(stereo not shown) [epibatidine]", "values": [{"measurement": "cooperativity of epibatidine binding", "setting": "mutant α7 AChRs [2]", "result": "markedly reduced cooperativity"}, {"measurement": "cooperativity of epibatidine binding", "setting": "mutant α7 AChRs [1]", "result": "maintained cooperativity"}, {"measurement": "increase of the apparent dissociation constant by phenylalanine substitutions", "setting": "mutant α7 AChRs [1]", "result": "4- to 2,200 fold"}, {"measurement": "binding of radiolabeled ligand to the α7–AChBP chimera", "setting": "α7–AChBP chimera; radiolabeled ligand, Supplementary Fig. 2", "result": "bound"}, {"measurement": "epibatidine binding to the α7 AChR", "setting": "human α7 AChR", "result": "cooperatively and with high affinity"}]}, {"compound": "α-bungarotoxin", "values": [{"measurement": "binding of radiolabeled ligand to the α7–AChBP chimera", "setting": "α7–AChBP chimera", "result": "bound"}]}]}
